Assay results from patent publication US10005782B2, “Substituted pyrazolo[1,5-a]pyrimidines as bruton's tyrosine kinase modulators” (BeiGene, Ltd., priority 2013, dated 2018).
Where two headings read alike, the source gives them in different places.

Target: Recombinant Btk (Homo sapiens (Human), UniProt Q06187)
Assay: Btk kinase assay (TR-FRET)
[1] = read-out: IC50 (nM) Btk, 1 hour pre-incubation, ATP at Km

Sequence of Recombinant Btk (Q06187 whole entry): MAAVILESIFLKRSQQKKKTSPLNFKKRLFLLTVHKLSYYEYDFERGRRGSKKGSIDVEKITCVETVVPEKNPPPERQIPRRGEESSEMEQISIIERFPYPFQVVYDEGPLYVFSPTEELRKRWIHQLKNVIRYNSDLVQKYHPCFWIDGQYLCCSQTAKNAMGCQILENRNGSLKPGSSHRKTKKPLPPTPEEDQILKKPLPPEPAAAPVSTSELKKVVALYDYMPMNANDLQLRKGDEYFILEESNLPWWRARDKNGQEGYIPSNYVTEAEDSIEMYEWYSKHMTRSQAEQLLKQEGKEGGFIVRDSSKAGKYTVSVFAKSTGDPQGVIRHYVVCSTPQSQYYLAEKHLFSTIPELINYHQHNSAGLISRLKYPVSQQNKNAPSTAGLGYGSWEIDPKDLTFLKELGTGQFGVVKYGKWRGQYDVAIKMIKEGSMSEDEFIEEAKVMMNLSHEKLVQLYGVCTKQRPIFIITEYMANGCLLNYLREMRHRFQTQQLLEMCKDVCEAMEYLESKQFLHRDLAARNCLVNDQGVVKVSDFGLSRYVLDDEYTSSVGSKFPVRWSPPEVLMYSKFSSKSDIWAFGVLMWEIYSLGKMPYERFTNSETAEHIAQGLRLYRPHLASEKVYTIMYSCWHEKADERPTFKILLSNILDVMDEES

Row | Compound | IC50 [1] | further results
1 | NC(=O)c1c(-c2ccc(Oc3ccccc3)cc2)nn2c1NCCC2c1cccc(N)c1 (single isomer, unassigned) [Compound 2a, 7-(3-Aminophenyl)-2-(4-phenoxyphenyl)-4,5,6,7-tetrahydropyrazolo[1,5-a]pyrimidine-3-carboxamide] |  | IC50 (read-out: IC50 (nM) Btk, 1 hour pre-incubation, ATP at Km, listed as 2a (peak 1)): 270 nM
2 | C=CC(=O)Nc1ccccc1C1CCNc2c(C(N)=O)c(-c3ccc(OC)c(OC)c3)nn21 (stereo not shown) [Compound 168, 7-(2-Acrylamidophenyl)-2-(3,4-dimethoxyphenyl)-4,5,6,7-tetrahydropyrazolo[1,5-a]pyrimidine-3-carboxamide] | 3.7 nM | 
3 | NC(=O)c1c(-c2ccc(Oc3ccccc3)cc2)nn2c1NCCC2c1cccc(N)c1 (single isomer, unassigned) [Compound 2b, 7-(3-Aminophenyl)-2-(4-phenoxyphenyl)-4,5,6,7-tetrahydropyrazolo[1,5-a]pyrimidine-3-carboxamide] |  | IC50 (read-out: IC50 (nM) Btk, 1 hour pre-incubation, ATP at Km, listed as 2b (peak 2)): 210 nM
4 | C=CC(=O)Nc1ccccc1C1CCNc2c(C(N)=O)c(-c3ccc(F)c(F)c3)nn21 (stereo not shown) [Compound 137, 7-(2-acrylamidophenyl)-2-(3,4-difluorophenyl)-4,5,6,7-tetrahydropyrazolo[1,5-a]pyrimidine-3-carboxamide] | 3.7 nM | 
